Measurements from patent US10681909B2, “Herbicidal triazoles” (FMC Corporation, priority 2014, dated 2020).

How the values were obtained:
ragweed [1] = assay: Test A preemergence; format: in vivo, Ambrosia elatior; conditions: 0 to 100 scale (0 no effect, 100 complete control)
Outline: (§1)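 Visual 0–100 ratings (0 no effect, 100 complete control) made roughly 10 days after treatment, comparing greenhouse-grown plants to untreated controls. Formulated test chemicals, with surfactant, went either as directed soil spray at planting or onto 2–10 cm seedlings bearing one to two leaves.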

kochia = assay: Test A postemergence; format: in vivo, Kochia scoparia; conditions: 0 to 100 scale (0 no effect, 100 complete control), approx. 10 d
Outline: as §1

galium [2] = assay: Test C preemergence; format: in vivo, Galium aparine; conditions: for Plant response rating (scale of 0 to 100 where 0 is no effect and 100 is complete control): Galium, preemergence; for Galium plant response rating (0 to 100): Preemergence, visual rating after 13 to 15 d
Outline: (§2)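 Test chemicals in a non-phytotoxic solvent mixture with surfactant were applied to pots of plants at 2 to 18 cm (1- to 4-leaf stage) for postemergence treatment, grown in a peat-based medium with vermiculite, starter nutrients and dolomitic limestone. Preemergence treatment was to seeds freshly planted in loam soil mixed with sand.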

nutsedge, yellow = assay: Test C preemergence; format: in vivo, Cyperus esculentus; conditions: for Plant response rating (scale of 0 to 100 where 0 is no effect and 100 is complete control): Nutsedge, Yellow, preemergence; for Nutsedge, Yellow plant response rating (0 to 100): Preemergence, visual rating after 13 to 15 d
Outline: as §2

ragweed [3] = assay: Test C preemergence; format: in vivo, Ambrosia elatior; conditions: for Ragweed plant response rating (0 to 100): Preemergence, visual rating after 13 to 15 d; for Plant response rating (scale of 0 to 100 where 0 is no effect and 100 is complete control): Ragweed, preemergence
Outline: as §2

canarygrass = assay: Test D preemergence; format: in vivo, Phalaris minor; conditions: for Plant response rating: Canarygrass: scale 0 to 100
Outline: (§3)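 Test chemicals in a non-phytotoxic solvent with surfactant applied preemergence to seeds in silt loam soil, or postemergence to plants 2–18 cm tall (1- to 4-leaf stage) grown in peat-based medium. Injury visually rated against untreated controls after 14–21 d in a controlled environment.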

galium [4] = assay: Test D preemergence; format: in vivo, Galium aparine; conditions: for Plant response rating: Galium: scale 0 to 100
Outline: as §3

field poppy [5] = assay: Test D preemergence; format: in vivo, Papaver rhoeas; conditions: for Plant response rating: Field Poppy: scale 0 to 100
Outline: as §3

field poppy [6] = assay: Test D postemergence; format: in vivo, Papaver rhoeas; conditions: scale 0 to 100
Outline: as §3

ryegrass, Ital. = assay: Test D postemergence; format: in vivo, Lolium multiflorum; conditions: scale 0 to 100
Outline: as §3

lambsquarters = assay: Test D postemergence; format: in vivo, Chenopodium album; conditions: scale 0 to 100
Outline: as §3

oat, wild = assay: Test D postemergence; format: in vivo, Avena fatua; conditions: scale 0 to 100
Outline: as §3

windgrass = assay: Test D postemergence; format: in vivo, Apera spica-venti; conditions: scale 0 to 100
Outline: as §3

[7] = 16 g ai/ha, 0 is no effect, 100 is complete control

CCOc1nc(-c2ccc(C(F)(F)F)cc2)nn1Cc1ccnc(C(F)(F)F)c1 [Compound 35, 4-[[5-ethoxy-3-[4-(trifluoromethyl)phenyl]-1H-1,2,4-triazole-1-yl]methyl]-2-(trifluoromethyl)pyridine]
Plant response rating, Ragweed (ragweed [1]; 31 g ai/ha): 20
Plant response rating, Ragweed (ragweed [1]; 125 g ai/ha): 50
Plant response rating, Kochia (kochia; 31 g ai/ha): 90
Plant response rating, Kochia (kochia; 125 g ai/ha): 90
Plant response rating (scale of 0 to 100 where 0 is no effect and 100 is complete control) (galium [2]; 125 g ai/ha): 90
Plant response rating (scale of 0 to 100 where 0 is no effect and 100 is complete control) (galium [2]; 250 g ai/ha): 90
Galium plant response rating (0 to 100) (galium [2]; 31 g ai/ha): 50
Galium plant response rating (0 to 100) (galium [2]; 62 g ai/ha): 80
Plant response rating (scale of 0 to 100 where 0 is no effect and 100 is complete control) (nutsedge, yellow; 125 g ai/ha): 0
Plant response rating (scale of 0 to 100 where 0 is no effect and 100 is complete control) (nutsedge, yellow; 250 g ai/ha): 0
Nutsedge, Yellow plant response rating (0 to 100) (nutsedge, yellow; 31 g ai/ha): 0
Nutsedge, Yellow plant response rating (0 to 100) (nutsedge, yellow; 62 g ai/ha): 0
Ragweed plant response rating (0 to 100) (ragweed [3]; 31 g ai/ha): 60
Ragweed plant response rating (0 to 100) (ragweed [3]; 62 g ai/ha): 75
Plant response rating (scale of 0 to 100 where 0 is no effect and 100 is complete control) (ragweed [3]; 125 g ai/ha): 85
Plant response rating (scale of 0 to 100 where 0 is no effect and 100 is complete control) (ragweed [3]; 250 g ai/ha): 90
Plant response rating (0 to 100), Canarygrass (canarygrass; [7]): 45
Plant response rating: Canarygrass (canarygrass; 31 g ai/ha): 95
Plant response rating: Canarygrass (canarygrass; 62 g ai/ha): 100
Plant response rating: Canarygrass (canarygrass; 125 g ai/ha): 100
Plant response rating (0 to 100), Galium (galium [4]; [7]): 70
Plant response rating: Galium (galium [4]; 62 g ai/ha): 80
Plant response rating: Galium (galium [4]; 125 g ai/ha): 80
Plant response rating (0 to 100), Field Poppy (field poppy [5]; [7]): 100
Plant response rating: Field Poppy (field poppy [5]; 62 g ai/ha): 100
Plant response rating: Field Poppy (field poppy [5]; 125 g ai/ha): 100
Plant response rating: Field Poppy (field poppy [6]; 16 g ai/ha): 80
Plant response rating: Field Poppy (field poppy [6]; 31 g ai/ha): 95
Plant response rating: Field Poppy (field poppy [6]; 62 g ai/ha): 95
Plant response rating: Field Poppy (field poppy [6]; 125 g ai/ha): 100
Plant response rating: Ryegrass, Ital. (ryegrass, Ital.; 16 g ai/ha): 30
Plant response rating: Ryegrass, Ital. (ryegrass, Ital.; 31 g ai/ha): 60
Plant response rating: Ryegrass, Ital. (ryegrass, Ital.; 62 g ai/ha): 65
Plant response rating: Ryegrass, Ital. (ryegrass, Ital.; 125 g ai/ha): 75
Plant response rating: Lambsquarters (lambsquarters; 16 g ai/ha): 85
Plant response rating: Lambsquarters (lambsquarters; 31 g ai/ha): 95
Plant response rating: Lambsquarters (lambsquarters; 62 g ai/ha): 95
Plant response rating: Lambsquarters (lambsquarters; 125 g ai/ha): 100
Plant response rating: Oat, Wild (oat, wild; 16 g ai/ha): 40
Plant response rating: Oat, Wild (oat, wild; 31 g ai/ha): 65
Plant response rating: Oat, Wild (oat, wild; 62 g ai/ha): 75
Plant response rating: Oat, Wild (oat, wild; 125 g ai/ha): 80
Plant response rating: Windgrass (windgrass; 16 g ai/ha): 55
Plant response rating: Windgrass (windgrass; 31 g ai/ha): 75
Plant response rating: Windgrass (windgrass; 62 g ai/ha): 80
Plant response rating: Windgrass (windgrass; 125 g ai/ha): 90
